The supplement of paper PMC10307832

Key:
Assay in all cases: relative viability (nuclei count vs DMSO), 5 days (fraction); higher = more cells survive
AZD1208 + Palbociclib = compound: N[C@@H]1CCCN(c2c(/C=C3\SC(=O)NC3=O)cccc2-c2ccccc2)C1 [AZD1208] + CC(=O)c1c(C)c2cnc(Nc3ccc(N4CCNCC4)cn3)nc2n(C2CCCC2)c1=O [Palbociclib] (partner 0.5 µM)
Method in brief: (§1)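 Lung cancer cell lines were seeded in 1536-well plates and dosed by pin tool the next day, with either a single drug or a fixed anchor-drug dose combined with five library-drug doses (not always all listed) spaced in √10 steps. Five days later, one step fixed the cells and stained their nuclei (final 0.05% Triton X-100, 1% formaldehyde, 1 ug/ml Hoechst), and nuclei were counted on 4× images. Relative viability is the nuclei count in treated wells divided by the count in vehicle wells, and each value is the median of duplicate plates.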

AZD1208 + Phenformin = compound: N[C@@H]1CCCN(c2c(/C=C3\SC(=O)NC3=O)cccc2-c2ccccc2)C1 [AZD1208] + N=C(N)NC(=N)NCCc1ccccc1 [Phenformin] (partner 250 µM)
Method in brief: as §1

AZD1208 + Luminespib = compound: N[C@@H]1CCCN(c2c(/C=C3\SC(=O)NC3=O)cccc2-c2ccccc2)C1 [AZD1208] + CCNC(=O)c1noc(-c2cc(C(C)C)c(O)cc2O)c1-c1ccc(CN2CCOCC2)cc1 [Luminespib] (partner 0.01 µM)
Method in brief: as §1

XMD14-99 + Lapatinib = compound: CN1CCN(CC1)C2=CC(=C(C=C2)NC3=NC(=C(S3)C(=O)C4=C(C=CC=C4Cl)Cl)N)OC [XMD14-99] + CS(=O)(=O)CCNCc1ccc(-c2ccc3ncnc(Nc4ccc(OCc5cccc(F)c5)c(Cl)c4)c3c2)o1 [Lapatinib] (partner 2 µM)
Method in brief: as §1

Row | Cell Line | relative viability (AZD1208 + Palbociclib; first compound 0.08 µM) | relative viability (AZD1208 + Palbociclib; first compound 0.253 µM) | relative viability (AZD1208 + Palbociclib; first compound 0.8 µM) | relative viability (AZD1208 + Palbociclib; first compound 2.53 µM) | relative viability (AZD1208 + Palbociclib; first compound 8 µM) | relative viability (AZD1208 + Phenformin; first compound 0.08 µM) | relative viability (AZD1208 + Phenformin; first compound 0.253 µM) | relative viability (AZD1208 + Phenformin; first compound 0.8 µM) | relative viability (AZD1208 + Phenformin; first compound 2.53 µM) | relative viability (AZD1208 + Phenformin; first compound 8 µM) | relative viability (AZD1208 + Luminespib; first compound 0.08 µM) | relative viability (AZD1208 + Luminespib; first compound 0.253 µM) | relative viability (AZD1208 + Luminespib; first compound 0.8 µM) | relative viability (AZD1208 + Luminespib; first compound 2.53 µM) | relative viability (AZD1208 + Luminespib; first compound 8 µM) | relative viability (XMD14-99 + Lapatinib; first compound 0.08 µM) | relative viability (XMD14-99 + Lapatinib; first compound 0.8 µM) | relative viability (XMD14-99 + Lapatinib; first compound 2.53 µM) | relative viability (XMD14-99 + Lapatinib; first compound 8 µM)
1 | LOU-NH91 | 0.473 | 0.56 | 0.549 | 0.525 | 0.531 | 0.715 | 0.691 | 0.659 | 0.684 | 0.574 | 0.34 | 0.342 | 0.365 | 0.313 | 0.322 | 0.706 | 0.841 | 0.76 | 0.64
2 | NCI-H23 | 0.491 | 0.478 | 0.462 | 0.477 | 0.356 | 0.793 | 0.828 | 0.627 | 0.798 | 0.609 | 0.238 | 0.218 | – | 0.202 | 0.24 | 1.08 | 1.29 | 1.14 | 0.881
3 | PC-3 [JPC-3] | 0.586 | 0.596 | 0.548 | 0.582 | 0.564 | 0.47 | 0.5 | 0.496 | 0.515 | 0.504 | 0.668 | 0.7 | 0.706 | 0.693 | 0.588 | 0.491 | 0.443 | 0.41 | 0.387
4 | NCI-H1437 | 0.288 | 0.353 | 0.302 | 0.263 | 0.291 | 0.324 | 0.258 | 0.267 | 0.277 | 0.314 | 1.13 | 1.17 | 1.2 | 1.24 | 1.22 | 0.804 | 0.745 | 0.573 | 0.458
5 | NCI-H520 | 0.188 | 0.195 | 0.146 | 0.205 | 0.186 | 0.47 | 0.577 | 0.476 | 0.369 | 0.279 | 0.253 | 0.246 | 0.212 | 0.201 | 0.207 | 0.845 | 0.88 | 0.834 | 0.652
6 | NCI-H1666 | 0.62 | 0.672 | 0.607 | 0.605 | 0.672 | 0.499 | 0.583 | 0.54 | 0.601 | 0.559 | 0.977 | 1.07 | 0.911 | 1 | 1.01 | 0.741 | 0.582 | 0.721 | 0.399
7 | NCI-H1651 | 0.527 | 0.535 | – | 0.473 | 0.459 | 0.328 | 0.387 | 0.299 | 0.315 | 0.249 | 0.902 | 0.977 | 0.848 | 0.795 | 0.568 | 0.779 | 0.823 | 0.79 | 0.705
8 | NCI-H1755 | 0.439 | 0.459 | 0.437 | 0.458 | 0.385 | 0.586 | 0.616 | 0.623 | 0.593 | 0.502 | 0.357 | 0.282 | 0.494 | 0.565 | 0.269 | 1.08 | 1.01 | 0.955 | 0.827
9 | NCI-H727 | 0.597 | 0.628 | 0.64 | 0.614 | 0.56 | 0.359 | 0.497 | 0.514 | 0.532 | 0.524 | 0.362 | 0.384 | 0.431 | 0.42 | 0.458 | 0.791 | 0.935 | 0.721 | 0.484
10 | HARA | 0.268 | 0.258 | 0.246 | 0.291 | 0.261 | 0.454 | 0.498 | 0.377 | 0.474 | 0.468 | 0.558 | 1.1 | 0.0617 | 0.81 | 0.777 | 0.701 | 1.03 | 0.647 | 0.362
11 | NCI-H647 | 0.322 | 0.486 | 0.324 | 0.397 | 0.304 | 0.459 | 0.837 | 0.344 | 0.344 | 0.352 | 0.266 | 0.16 | 0.294 | 0.154 | 0.146 | 1.11 | 1.03 | 1.13 | 0.842
12 | NCI-H2347 | 0.457 | 0.383 | 0.45 | 0.395 | 0.382 | 0.302 | 0.46 | 0.363 | 0.347 | 0.389 | 0.416 | 0.625 | 0.415 | 0.371 | 0.306 | 0.957 | 0.907 | 0.793 | 0.659
13 | LCLC-97TM1 | 0.197 | 0.203 | 0.199 | 0.216 | 0.19 | 0.358 | 0.498 | 0.429 | 0.447 | 0.335 | 0.829 | 0.754 | 0.604 | 0.632 | 0.727 | 1.06 | 0.815 | 0.786 | 0.583
14 | EPLC-272H | 0.363 | 0.34 | 0.326 | 0.308 | 0.373 | 0.313 | 0.329 | 0.305 | 0.272 | 0.244 | 0.276 | 0.557 | 0.288 | 0.219 | 0.215 | 0.927 | 0.943 | 0.924 | 0.846
15 | NCI-H1915 | 0.504 | 0.435 | 0.486 | 0.474 | 0.455 | 0.366 | 0.402 | 0.372 | 0.348 | 0.352 | 0.768 | 0.811 | 0.709 | 0.677 | 0.678 | 1 | 0.974 | 0.959 | 0.911
16 | NCI-H3122 | 0.206 | 0.155 | 0.149 | 0.223 | 0.164 | 0.413 | 0.4 | 0.406 | 0.417 | 0.422 | 0.0933 | 0.129 | 0.0763 | 0.0991 | 0.0841 | 0.982 | 0.965 | 0.879 | 0.746
17 | NCI-H2170 | 0.401 | 0.455 | 0.368 | 0.357 | 0.247 | 0.458 | 0.385 | 0.444 | 0.438 | 0.447 | 0.65 | 0.656 | 0.632 | 0.512 | 0.321 | 0.263 | 0.27 | 0.245 | 0.259
